In data set [1] the test system is Septoria tritici. The data set can be described thus: In vivo preventive test on Septoria tritici (leaf spot on wheat). The note with it: 500 ppm; wheat plants sprayed 24 hours before contamination; grading 21 to 28 days after contamination vs control plants. The procedure: Wheat plants (“Scipion” variety), sown in starter cups on a 50/50 peat soil-pozzolana substrate and grown at 22° C. (12 h)/20° C. (12 h), are treated at the 1-leaf stage (10 cm height) by spraying with the active ingredient prepared as described above. Plants, used as controls, are treated with the mixture of acetone/tween/DMSO/water not containing the active material. After 24 hours, the plants are contaminated by spraying the leaves with an aqueous suspension of cryopreserved Septoria tritici spores (500 000 spores per ml). […] Grading (% of efficacy) is carried out 21 to 28 days after the contamination, in comparison with the control plants.

The format of data set [2] is physicochemical.
Setting [3] is: HPLC on reversed phase columns, method [a]: pH 2.7, 0.1% formic acid in water / acetonitrile, linear gradient 10% to 95% acetonitrile.
Where [4] appears, read: method [a]: HPLC/LC-MS on reversed phase at pH 2.7, 0.1% formic acid in water / acetonitrile, gradient 10% to 95% acetonitrile.
The mark [5] stands for this setting: method [a]: HPLC/LC-MS on reversed phase at pH 2.7, 0.1% formic acid in water / acetonitrile, linear gradient 10% to 95% acetonitrile.
Where [6] appears, read: HPLC on reversed phase columns, method [a]: pH 2.7, 0.1% formic acid in water and acetonitrile, linear gradient 10% to 95% acetonitrile.

Where two headings read alike, the source gives them in different places.

Consider `CC(O)C1(C(=O)NCC2COC(C)(C)O2)CC(c2ccc3ncc(Br)cc3c2)=NO1` (mixture of isomers) [compound 555], for which the “% of efficacy (protection)” value in data set [1] came out at 71%.

Take `Cc1cnc(CNC(=O)C2(C(C)O)CC(c3ccc4ncc(Br)cc4c3)=NO2)cn1` (mixture of isomers) [compound 562]: the “% of efficacy (protection)” value in data set [1] turned out to be 86%. Turning to `C#CCCNC(=O)C1(C)CC(c2ccc3ncc(C#C)cc3c2)=NO1` (racemic) [compound 355], the “% of efficacy (protection)” value in data set [1] is recorded as 100%. Also, in data set [2] (setting [3]), the “log P” value was 2.25[a].

With `C#Cc1cnc2ccc(C3=NOC(C)(C(=O)NCC(OC)OC)C3)cc2c1` (racemic) [compound 366], the “% of efficacy (protection)” value in data set [1] was found to be 100%. Further, the “log P” value in data set [2] (setting [4]) was 2.13[a]. Turning to `CC(C)NC(=O)C1ON=C(c2ccc3ncc(Br)cc3c2)C1C` (racemic) [compound 376], the “% of efficacy (protection)” value in data set [1] is given as 86%. For the same compound, the “log P” value in data set [2] (setting [4]) was 2.64[a]. For the compound `CC#Cc1cnc2ccc(C3=NOC(C)(C(=O)NCc4cn(CC)nc4C)C3)cc2c1` (racemic) [compound 378], the “% of efficacy (protection)” value in data set [1] was determined as 97%. Further, in data set [2] (setting [4]), the “log P” value is 2.35[a]. For `CC(C)ONC(=O)C1(C)CC(c2ccc3ncc(Br)cc3c2)=NO1` (racemic) [compound 388], in that order: 100% and 2.44[a]. For `CCONC(=O)C1(C)CC(c2ccc3ncc(Br)cc3c2)=NO1` (racemic) [compound 389], in that order: 100% and 2.17[a].

With `CC1(C(=O)NC2CCCC2)CC(c2ccc3ncc(Br)cc3c2)=NO1` (racemic) [compound 390], the “% of efficacy (protection)” value in data set [1] was 98%. Moreover, the “log P” value in data set [2] (setting [4]) was 3.29[a]. Regarding `CC(C)NC(=O)C12CC1C(c1ccc3ncc(Br)cc3c1)=NO2` (racemic) [compound 397], the “% of efficacy (protection)” value in data set [1] was 75%. In addition, the “log P” value in data set [2] (setting [4]) is 2.82[a].

Turning to `C#Cc1cnc2ccc(C3=NOC(C)(C(=S)NCc4cnn(C)c4C)C3)cc2c1` (racemic) [compound 443], the “% of efficacy (protection)” value in data set [1] worked out at 88%. Besides, the “log P” value in data set [2] (setting [4]) was 2.76[a].

As for `COC1(C(=O)NC(C)C)CC(c2ccc3ncc(Br)cc3c2)=NO1` (single isomer, unassigned) [compound 285], in data set [1], the “% of efficacy (protection)” value came out at 100%. In data set [2] (setting [3]), the “log P” value is 2.57[a]. Turning to `Cc1cc(NC(=O)C2(C)CC(c3cc4cc(Br)cnc4c(F)c3F)=NO2)n(C)n1` (centres unmarked) [compound 18], the “% of efficacy (protection)” value in data set [1] was 93%. Also, the “Log P” value in data set [2] (method [a]: HPLC/LC-MS on reversed phase at pH 2.7, 0.1% formic acid in water and acetonitrile, linear gradient 10% to 95% acetonitrile) is 2.6^[a]. Turning to `CCC(C)NC(=O)C1(C)CC(c2cc3cc(Br)cnc3c(OC)c2OC)=NO1` (centres unmarked) [compound 28], in data set [1], the “% of efficacy (protection)” value came out at 100%. Further, the “log P” value in data set [2] (setting [5]) was 3.21^[a]. For `CCn1cc(CNC(=O)C2(C)CC(c3cc4cc(Br)cnc4c(F)c3OC)=NO2)c(C)n1` (centres unmarked) [compound 29], in that order: 100% and 2.47^[a]. In the case of `CCn1cc(CNC(=O)C2(C)CC(c3cc4cc(Br)cnc4c(OC)c3OC)=NO2)c(C)n1` (centres unmarked) [compound 30], the “% of efficacy (protection)” value in data set [1] is reported as 100%. In addition, the “log P” value in data set [2] (setting [5]) is 2.42^[a]. For `CCn1cc(CNC(=O)C2(C)CC(c3ccc4ncc(Cl)cc4c3)=NO2)c(C)n1` (centres unmarked) [compound 54], in that order: 100% and 2.28^[a]. On to `CCn1cc(CNC(=O)C2(Cc3ccccc3)CC(c3ccc4ncc(Br)cc4c3)=NO2)c(C)n1` (centres unmarked) [compound 56], for which the “% of efficacy (protection)” value in data set [1] came to 70%. In data set [2] (setting [5]), the “log P” value is 3.23^[a]. The like results for `CCOCCCNC(=O)C1(Cc2ccccc2)CC(c2ccc3ncc(Br)cc3c2)=NO1` (centres unmarked) [compound 59] were, in that order, 70% and 3.8^[a]. Turning to `CCn1cc(CNC(=O)C2(C(C)C)CC(c3ccc4ncc(Br)cc4c3)=NO2)c(C)n1` (centres unmarked) [compound 61], the “% of efficacy (protection)” value in data set [1] was 80%. In data set [2] (setting [5]), the “log P” value was 2.94^[a].

Turning to `CC(C)NC(=O)C1(CF)CC(c2ccc3ncc(Br)cc3c2)=NO1` (centres unmarked) [compound 76], the “% of efficacy (protection)” value in data set [1] was 75%. Moreover, the “log P” value in data set [2] (setting [5]) was 2.46^[a]. As to `C#Cc1cnc2ccc(C3=NOC(C)(C(=O)NCc4ccc(-c5csnn5)cc4)C3)cc2c1` (centres unmarked) [compound 86], in data set [1], the “% of efficacy (protection)” value is reported as 75%. Moreover, the “log P” value in data set [2] (setting [5]) was 2.82^[a].

In the case of `CC1(C(=O)NCc2ccccc2)CC(c2ccc3ncc(Br)cc3c2)=NO1` (centres unmarked) [compound 91], the “% of efficacy (protection)” value in data set [1] is 75%. Also, the “log P” value in data set [2] (setting [5]) was 3.21^[a]. The like results for `CC1(C(=O)NCc2ccc(Cl)nc2)CC(c2ccc3ncc(Br)cc3c2)=NO1` (centres unmarked) [compound 104] were, in that order, 92% and 2.73^[a]. For `Cn1ccc(NC(=O)C2(C(F)(F)F)CC(c3ccc4ncc(Br)cc4c3)=NO2)c1` (centres unmarked) [compound 108], in that order: 75% and 3.5^[a]. As to `C#Cc1cnc2ccc(C3=NOC(C)(C(=O)NCc4ccc5[nH]ccc5c4)C3)cc2c1` (centres unmarked) [compound 115], in data set [1], the “% of efficacy (protection)” value was determined as 75%. In data set [2] (setting [5]), the “log P” value was 2.63^[a]. In the case of `C#Cc1cnc2ccc(C3=NOC(C)(C(=O)NCC4CCC(C(F)(F)F)CC4)C3)cc2c1` (centres unmarked) [compound 121], in data set [1], the “% of efficacy (protection)” value was 75%. Besides, the “log P” value in data set [2] (setting [5]) is 3.61^[a]. The like results for `C#Cc1cc2cc(C3=NOC(C)(C(=O)NC(C)C)C3)ccc2nc1OC` (centres unmarked) [compound 133] were, in that order, 100% and 3.09^[a].

On to `C#Cc1cc2cc(C3=NOC(C)(C(=O)NC(C)C)C3)ccc2nc1Cl` (centres unmarked) [compound 134], for which the “% of efficacy (protection)” value in data set [1] is recorded as 71%. Further, the “log P” value in data set [2] (setting [5]) is 3.08^[a]. Take `CC1(C(=O)NC(C)(C#N)C2CC2)CC(c2ccc3ncc(Br)cc3c2)=NO1` (centres unmarked) [compound 301]: in data set [1], the “% of efficacy (protection)” value came to 80%. Turning to `C#Cc1cnc2ccc(C3=NOC(C)(C(=O)NCc4ccncc4F)C3)cc2c1` (centres unmarked) [compound 804], in data set [2] (setting [6]), the “log P” value was 2.02[a]. On the same count and under the same terms, then `C#Cc1cnc2ccc(C3=NOC(C)(C(=O)NCc4cccnc4O)C3)cc2c1` (centres unmarked) [compound 805], with 1.64[a]; and `C#Cc1cnc2ccc(C3=NOC(C)(C(=O)NCc4ccc(O)nc4)C3)cc2c1` (centres unmarked) [compound 806], with 1.54[a]. Consider `CC1(C(=O)NCc2ccc(O)nc2)CC(c2ccc3ncc(Br)cc3c2)=NO1` (centres unmarked) [compound 807], for which the “log P” value in data set [2] (setting [6]) was 1.72[a]. Still for that read-out and setting: next, `C#Cc1cnc2ccc(C3=NOC(C)(C(=O)NCc4cccnc4N(C)C)C3)cc2c1` (centres unmarked) [compound 808]: 1.43[a]; `C#Cc1cnc2ccc(C3=NOC(C)(C(=O)NCc4ccnc(NC5CC5)c4)C3)cc2c1` (centres unmarked) [compound 809]: 1.45[a]; `CC1(C(=O)NCc2ccncc2F)CC(c2ccc3ncc(Br)cc3c2)=NO1` (centres unmarked) [compound 811]: 2.27[a]. Take `C#Cc1cnc2ccc(C3=NOC(C)(C(=O)NCc4cccnc4C#N)C3)cc2c1` (centres unmarked) [compound 812]: in data set [2] (setting [6]), the “log P” value was 1.70[a]. Same read-out and setting: next, `C#Cc1cnc2ccc(C3=NOC(C)(C(=O)NCC4CC(F)(F)C4)C3)cc2c1` (centres unmarked) [compound 813]: 2.71[a]. The same measure, in the same setting: then `CC1(C(=O)NCc2cccnc2C#N)CC(c2ccc3ncc(Br)cc3c2)=NO1` (centres unmarked) [compound 814], with 1.91[a]; and `CC1(C(=O)N(Cc2cc(F)cc3c2C(C)(C)CCC3)C2CC2)CC(c2ccc3ncc(Br)cc3c2)=NO1` (centres unmarked) [compound 815], with 6.11[a].

(Values after patent US9510598B2, “Nitrogen-containing heterocyclic compounds for plant disease control” (BAYER CROPSCIENCE AG, priority 2012, dated 2016).)
